# Results from patent US9433687B2, “Anti-Notch3 antibodies and antibody-drug conjugates” (Pfizer Inc., priority 2012, dated 2016).
# Experiments:
# [1] = OVCAR3 ovarian xenograft model; settings: female, SCID Hairless Outbred (SHO), mouse, in vivo, ip
# [2] = tested on: OVCAR3 ovarian xenografts; experiment: OVCAR3 ovarian xenograft model; settings: dose 60 mg/kg (30 mg/kg twice a day) intraperitoneally Q7d×4
compound,measurement,setting,value
"CC(=O)O[C@H]1C(=O)[C@@]2(C)[C@H]([C@H](OC(=O)c3ccccc3)[C@]3(O)C[C@H](OC(=O)[C@H](O)[C@@H](NC(=O)c4ccccc4)c4ccccc4)C(C)=C1C3(C)C)[C@]1(OC(C)=O)CO[C@@H]1C[C@@H]2O [paclitaxel, reference compound]",MTD,[1],60 mg/kg
same,tumor volume,[2]; DAY 0,169 mm3
same,tumor volume,[2]; DAY 6,139 mm3
same,tumor volume,[2]; DAY 11,85 mm3
same,tumor volume,[2]; DAY 14,84 mm3
same,tumor volume,[2]; DAY 18,61 mm3
same,tumor volume,[2]; DAY 21,50 mm3
same,tumor volume,[2]; DAY 25,41 mm3
same,tumor volume,[2]; DAY 28,44 mm3
same,tumor volume,[2]; DAY 31,43 mm3
same,tumor volume,[2]; DAY 34,50 mm3
same,tumor volume,[2]; DAY 38,55 mm3
same,tumor volume,[2]; DAY 41,38 mm3
same,tumor volume,[2]; DAY 45,39 mm3
same,tumor volume,[2]; DAY 49,40 mm3
same,tumor volume,[2]; DAY 53,40 mm3
same,tumor volume,[2]; DAY 56,39 mm3
same,tumor volume,[2]; DAY 59,37 mm3
same,tumor volume,[2]; DAY 63,42 mm3
same,tumor volume,[2]; DAY 67,33 mm3
same,tumor volume,[2]; DAY 70,28 mm3
same,tumor volume,[2]; DAY 74,32 mm3
same,tumor volume,[2]; DAY 77,31 mm3
same,tumor volume,[2]; DAY 80,31 mm3
same,tumor volume,[2]; DAY 83,38 mm3
same,tumor volume,[2]; DAY 87,28 mm3
same,tumor volume,[2]; DAY 90,32 mm3
same,tumor volume,[2]; DAY 94,30 mm3
same,tumor volume,[2]; DAY 97,31 mm3
same,tumor volume,[2]; DAY 102,26 mm3
same,tumor volume,[2]; DAY 105,31 mm3
same,tumor volume,[2]; DAY 108,28 mm3
same,tumor volume,[2]; DAY 111,26 mm3
same,tumor volume,[2]; DAY 115,31 mm3
same,tumor volume,[2]; DAY 118,26 mm3
same,tumor volume,[2]; DAY 122,31 mm3
